O=[N+]([O-])/N=C1\NCCN1Cc1ccc(Cl)nc1
solubility (mole fraction)
Details | 283.15 K | 288.15 K | 293.15 K | 298.15 K | 303.15 K | 308.15 K | 313.15 K | 318.15 K | 323.15 K
in acetone | 0.00862 | 0.0102 | 0.012 | 0.014 | 0.0163 | 0.0188 | 0.0218 | 0.0249 | 0.0285
in ethanol | 0.000303 | 0.0004 | 0.00053 | 0.000699 | 0.000895 | 0.00115 | 0.00148 | 0.00191 | 0.00238
in methanol | 0.000689 | 0.000882 | 0.00112 | 0.00141 | 0.00177 | 0.00221 | 0.00274 | 0.00339 | 0.0041
in n-propanol | 0.000266 | 0.000362 | 0.000475 | 0.00064 | 0.000837 | 0.00109 | 0.0014 | 0.00179 | 0.00228
in water | 6.79e-06 | 9.67e-06 | 1.36e-05 | 1.87e-05 | 2.56e-05 | 3.43e-05 | 4.71e-05 | 6.23e-05 | 8.15e-05

— BigSolDB 2.1
